# Conditions: buffer; pH 7.4; 200.0 µM
row,Compound,solubility kinetic [µg/mL]
1,COc1cccc(NC(=O)C(C)N2C(=O)c3ccccc3C2=O)c1 (centres undefined),27.3
2,Cc1cc(/C=C(\C#N)C(=O)NCc2ccccc2)cc(C)c1O,< 0.3
3,CN1CCN(C(=S)c2ccc(-c3cccc([N+](=O)[O-])c3)o2)CC1,43.3
4,COc1cccc(NC(=O)c2sc(Cl)nc2C)c1,> 42.4
5,CCN(CCNC(=O)c1ccc(C#N)cc1)c1cccc(C)c1,> 46.1
6,Cc1ccc(NC(=O)C2CCN(c3nc(C)cc(C)n3)CC2)cc1,2.4
7,CCOCCCNCC(=O)Nc1cc(S(=O)(=O)N2CCOCC2)ccc1N1CCOCC1,> 70.6
8,CCOc1ccc(C(CC(=O)O)NC(=O)C(CC)c2ccccc2)cc1 (centres undefined),47.9
9,CSc1ncc(C(=O)Nc2ccc(C(C)=O)cc2)c(C)n1,> 45.2
10,Cc1cc(/C=C2\SC(=S)NC2=O)c(C)n1-c1ccccc1,3.3
11,Cc1cccc(C(=O)NCCCn2ccnc2)c1C,37.6
12,Cc1cc(C)nc(NC(=S)Nc2cccc(F)c2)c1,< 0.2
13,Cc1ccccc1NC(=O)CSC(=O)c1ccccc1,12.5
14,CC(C)(C)N(Cc1cc2ccccc2[nH]c1=O)C(=O)c1cccc([N+](=O)[O-])c1,1.4
15,CCOc1ccccc1OCCN1CCCC1,24.1
16,O=C1c2ccccc2C(=O)N1CCOc1ccccc1Cl,3.5
17,O=[N+]([O-])c1cccnc1Oc1ccc(F)cc1,31.6
18,O=C(/C=C/c1ccco1)NCc1ccco1,> 32.6
19,Cn1c(=O)[nH]c(=O)c2c1nc1n2CC(COc2ccc3ccccc3c2)O1 (centres undefined),0.4
20,O=C(CCNS(=O)(=O)c1ccc(OC(F)(F)F)cc1)NC1CC1,> 52.8
21,Cc1cccc(C(=O)Nc2cc(NC(=O)c3cccs3)ccc2C)c1,2
22,CCc1ccc(NC(=O)CCc2ccc(CC)o2)cc1,4
23,Cl.Clc1ccc(-c2ccc(CNCC3CCCO3)o2)cc1 (centres undefined),> 49.2
24,O=C(CSc1ncnc2ccccc12)NCc1ccc2c(c1)OCO2,10.1

row,Compound,solubility kinetic [µg/mL]
1,Cn1ccnc1SCC(=O)Nc1cccc(C#N)c1,> 40.8
2,Cc1ccc(S(=O)(=O)Nc2cccnc2)cc1C,10.7
3,COc1ccc(NC(=O)c2cc([N+](=O)[O-])ccc2O)cc1,> 43.2
4,CC(C)Cn1c(N)c(C(=O)COC(=O)c2ccccc2C(=O)c2ccccc2)c(=O)n(C)c1=O,3.5
5,O=C1NC(=Nc2ccccc2)S/C1=C\c1cccnc1,2
6,O=C(COC(=O)c1ccccc1)NC(=O)NC1CCCC1,23.8
7,CCCCN1C(=O)C(=O)N(CC(=O)Nc2ccccc2C(=O)OCC)C1=O,55.1
8,Cc1nn(-c2cccc(C(=O)O)c2)c(C)c1[N+](=O)[O-],> 39.2
9,CC1CCCN(C(=O)c2ccc([N+](=O)[O-])o2)C1 (centres undefined),> 35.7
10,CC(=O)Nc1cccc(OCCCNS(=O)(=O)c2ccc(C#N)cc2)c1,> 56
11,NC(=O)NNC(=S)Nc1cccc2ccccc12,> 39
12,COc1cccc(C2NC(=O)NC(C)=C2C(=O)OCC2CCCO2)c1 (centres undefined),44.9
13,O=C(O)c1cccc(S(=O)(=O)Nc2ccc(N3CCCCC3)cc2)c1,> 54.1
14,CC(CNS(=O)(=O)c1ccc(Br)cc1)CN(C)C (centres undefined),> 50.3
15,O=C(COc1ccccc1F)Nc1ccc2c(c1)CCC2,4
16,O=C(CCNS(=O)(=O)c1ccccc1)N1CCOCC1,> 44.8
17,CN(C)C1(CNC(=O)Nc2ccccc2)CCCCC1,> 41.3
18,C(=C\c1ccncc1)/c1ccccc1,11.2
19,CCOC(=O)Nc1ccc2c(c1)nc1n2CCN(CCOC)C1,> 47.8
20,O=C1NC(=O)/C(=C/c2ccccc2Cl)N1,17.8
21,CCN(CC)C(=O)COCc1cc(-c2ccc3c(c2)OCO3)on1,> 49.9
22,Cn1cc(C=C2C(=O)NC(=O)NC2=O)c2ccccc21,2.6
23,CC(C)(C)c1ccccc1OCC(=O)NCc1ccccc1,1.8
24,CC(C)CNC(=O)CSc1nnc2ccccn12,> 39.7

row,Compound,solubility kinetic [µg/mL]
1,Cl.O=C(c1cc(-c2cccc3ccccc23)nc2ccccc12)N1CCN(CCO)CC1,> 67.2
2,COc1ccc(OCC(O)CNC2CCCC2)cc1.Cl (centres undefined),42.6
3,O=S(=O)(Nc1ccc(Cl)cn1)c1cccs1,> 41.2
4,O=c1[nH]c2ccccc2nc1-c1ccc(Cl)cc1,< 0.3
5,O=C(CN1C(=O)S/C(=C\c2ccccn2)C1=O)Nc1ccc(F)cc1,0.9
6,CCOC(=O)c1sc(=S)n(CC)c1NC(=O)c1ccccc1,8.8
7,CSc1sc(C(=O)Nc2ccc(F)cc2F)c2c1C=CCC2,2.9
8,Nc1ncc2[nH]cnc2n1.O=[N+]([O-])O,> 29.7
9,O=C(OCc1ccccc1F)c1cnc(Cl)c(Cl)c1,1.6
10,CSCCCN1CCCC(CO)(Cc2ccccc2F)C1 (centres undefined),> 46.7
11,O=c1cc(-c2ccco2)nc(SCc2cccc(Cl)c2)[nH]1,0.6
12,COc1cccc(N2CCN(C(=O)c3ccc(-c4ccccc4)cc3)CC2)c1,0.8
13,CSc1cccc(NC(=S)Nc2cc(C)ccc2C)c1,22.5
14,OC(CNCCc1c[nH]c2ccccc12)c1ccccc1 (centres undefined),37
15,O=C(CCc1nc(-c2ccc(Cl)cc2)no1)NCC1CCCO1 (centres undefined),> 50.4
16,CCC(C)c1ccc(NC(=O)NCc2cccnc2)cc1 (centres undefined),41
17,CCOc1ccc(C(=O)NCc2ccc3c(c2)OCO3)cc1OCC,1.2
18,Cc1ccc2ccc(S(=O)(=O)NCc3ccccn3)cc2c1,7
19,O=C(NCc1ccc(F)cc1)c1cccnc1C(=O)O,> 41.1
20,CCOc1ccc(NC(=O)C2CC3CCC2C3)cc1 (centres undefined),6.1
21,CC/C(=N\N1CCCCC1)c1c(O)[nH]c(=O)[nH]c1=O,> 39.9
22,COc1ccc(OC(=O)/C=C/c2ccc([N+](=O)[O-])cc2)cc1,< 0.6
23,CCC(=O)c1cc(F)ccc1OCC(=O)Nc1ccc2c(c1)OCCO2,6.2
24,O=[N+]([O-])c1ccc(Cl)c([N+](=O)[O-])c1,13.8

row,Compound,solubility kinetic [µg/mL]
1,CN1CCCN(Cc2nc(-c3ccc(Cl)cc3)no2)CC1,40.4
2,S=C1NCN(Cc2ccco2)CN1c1ccccc1,> 41
3,CC(C)Cn1c(N)c(C(=O)COC(=O)c2cc(S(=O)(=O)N3CCOCC3)ccc2Br)c(=O)n(C)c1=O,7.9
4,O=C(NCC1CCCO1)C1CC(=O)N(c2ccc(Cl)cc2)C1 (centres undefined),> 48.4
5,COc1ccc(OCCn2ccnc2C)cc1.O=C(O)C(=O)O,41.7
6,S=c1nc(NCCc2ccccc2Cl)c2ccccc2[nH]1,0.2
7,COc1ccc(S(=O)(=O)N2CCCC2)cc1OC,32.7
8,O=C(O)CCn1c(SCCOc2ccccc2F)nc2ccccc21,> 54.1
9,COc1ccc(Cl)cc1C(=O)NC1=NCCS1,38.6
10,CCOc1ccc(S(=O)(=O)N2CCN(c3ncccn3)CC2)cc1,2.7
11,N/C(=N\O)c1ccccc1N1CCCCC1,29.9
12,CN1c2ccccc2C(=O)/C(=C\Nc2ccc(F)cc2)S1(=O)=O,< 0.4
13,Nc1c(N(Cc2ccccc2)C(=O)COc2ccc(F)cc2Cl)c(=O)[nH]c(=O)n1Cc1ccccc1,9.4
14,Nc1ncc(CCN2CCOCC2)c(-c2ccc(F)cc2)n1,> 45.4
15,COc1cccc(C(=O)N2CCC(C(=O)N3CCN(C)CC3)CC2)c1,> 51.8
16,CC1CC(C)CN(C(=O)COC(=O)c2cncc(Br)c2)C1 (centres undefined),42.4
17,COC(=O)/C(=C\c1ccc(O)cc1)c1nc2ccccc2[nH]1,39.6
18,Cc1ccc(OCC(=O)N(C)C2CCCCC2)c([N+](=O)[O-])n1,> 46.1
19,CNC(=O)c1cc(C(=O)c2ccc(F)cc2Cl)c[nH]1,14.1
20,O=C(CCNC(=O)c1ccccc1)NCCc1ccc(Cl)cc1,6.9
21,Cc1ccnc(Nc2nc(-c3ccc(O)cc3O)cs2)c1,2
22,Cc1ccc(CSCC(=O)Nc2ccccc2F)cc1,27.6
23,COc1ccc(C(C)=O)cc1COc1ccccc1[N+](=O)[O-],< 0.6
24,S=C(NCCc1ccccn1)NC1CC2CCC1C2 (centres undefined),> 41.3

row,Compound,solubility kinetic [µg/mL]
1,Cc1nc2c(C(F)(F)F)cccc2c2c1CCS2,< 0.6
2,CN(CCN1CCOCC1)Cc1nc(-c2cccs2)no1,44.5
3,Cc1ccc(S(=O)(=O)N2CCOCC2)cc1C(=O)OCC(=O)NCCc1ccccc1,> 67
4,Cc1ccc(CNC(=O)COC(=O)c2cc(=O)[nH]c3ccccc23)cc1,5.5
5,CCS(=O)c1ccccc1C(=O)OCC(=O)Nc1ccc2ccccc2c1 (centres undefined),45.8
6,CC(=O)Nc1cccc(C(=O)OCN2C(=O)c3ccccc3C2=O)c1,9.5
7,O=c1[nH]c(CSc2cccc[n+]2[O-])nc2ccccc12,> 42.8
8,COc1ccccc1CC(=O)N1CCN(C(=O)c2ccco2)CC1,48.3
9,N/C(=N\OC(=O)c1cccs1)c1cccc(Br)c1,8.5
10,Nc1c(N=O)c(=O)[nH]c(=O)n1-c1ccccc1,> 34.8
11,CN(C)S(=O)(=O)c1cccc(NC(=O)c2cc(=O)[nH]c(=O)[nH]2)c1,> 50.8
12,CCOc1cccc2cc(C(=O)NCc3ccc(F)cc3)c(=N)oc12,0.7
13,CCN(C(=O)CCc1ccccc1)C1CCCCC1,26.8
14,COc1cc(NC(=O)CCN2CC(C)OC(C)C2)cc(OC)c1 (centres undefined),34.3
15,O=C(NCCc1ccccc1)C1CC(=O)N(C2CCCCC2)C1 (centres undefined),> 47.2
16,Cc1ccc(S(=O)(=O)NCCC(=O)NCc2cccnc2)cc1,> 50
17,CC(=O)Oc1cccc(N2C(=O)C3C4C=CC(CC4)C3C2=O)c1 (centres undefined),32.8
18,COC(=O)[C@H](CCSC)NC(=O)Nc1cccc(C)c1C,37.1
19,CN(CC(=O)NCc1ccco1)CC(=O)Nc1ccc(F)c(F)c1F,45.2
20,COc1cc2c(cc1OC)CN(C(=O)/C=C/c1cccs1)CC2,> 49.4
21,Cc1ccc(S(=O)(=O)NC(=O)Nc2cccc(C)n2)cc1,> 45.8
22,COc1ccccc1C(NC(C)=O)c1c(O)ccc2ccc(O)cc12 (centres undefined),> 50.6
23,CCCCNC(=S)N1CCC(Cc2ccccc2)CC1,6.2
